From ChEMBL document CHEMBL4610009, “Modification of the lead molecule: Tryptophan and piperidine appended triazines reversing inflammation and hyeperalgesia in rats” (Bioorg Med Chem, 2020)
Converted amounts (≈) assume the structure as drawn. One block for each compound: values may come before it. The source made the active and inactive calls. No cut-off for these calls is given here.

Experiments:
[1] = target: T1, Prostaglandin G/H synthase 1 (Ovis aries, UniProt P05979); test: Inhibition of ovine COX1 using arachidonic acid as substrate incubated for 10 mins followed by substrate addition and measured after 2 mins by EIA assay
T1 sequence (P05979 whole entry): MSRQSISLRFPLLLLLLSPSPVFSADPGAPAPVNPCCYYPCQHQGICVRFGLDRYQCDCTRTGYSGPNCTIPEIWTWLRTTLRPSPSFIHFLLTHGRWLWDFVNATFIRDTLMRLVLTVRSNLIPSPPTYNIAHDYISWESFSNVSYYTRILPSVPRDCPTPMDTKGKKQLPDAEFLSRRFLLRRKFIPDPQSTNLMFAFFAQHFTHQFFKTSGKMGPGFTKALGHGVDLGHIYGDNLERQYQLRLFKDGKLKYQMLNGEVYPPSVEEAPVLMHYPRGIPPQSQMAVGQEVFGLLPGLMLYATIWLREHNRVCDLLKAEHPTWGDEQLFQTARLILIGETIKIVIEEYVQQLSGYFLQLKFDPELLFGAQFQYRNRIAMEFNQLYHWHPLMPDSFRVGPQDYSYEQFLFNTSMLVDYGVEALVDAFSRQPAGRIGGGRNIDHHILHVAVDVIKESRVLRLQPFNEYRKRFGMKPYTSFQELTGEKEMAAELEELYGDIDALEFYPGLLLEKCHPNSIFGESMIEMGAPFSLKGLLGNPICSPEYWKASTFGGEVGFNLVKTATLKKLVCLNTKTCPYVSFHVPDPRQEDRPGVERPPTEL

Rattus norvegicus [2] = test: Analgesic activity in Wistar rat assessed as reduction in acetic acid-induced writhing at 10 mg/kg, ip incubated for 30 mins followed by acetic acid addition and observed for 30 mins; format: functional, organism-based
Rattus norvegicus [3] = test: Analgesic activity in Wistar rat assessed as reduction in formalin-induced flitching in inflammatory phase at 10 mg/kg, ip incubated for 30 mins followed by formalin addition and observed for 60 mins; format: functional, organism-based
Rattus norvegicus [4] = test: Analgesic activity in Wistar rat assessed as reduction in formalin-induced flitching in neurogenic phase at 10 mg/kg, ip incubated for 30 mins followed by formalin addition and observed for 60 mins; format: functional, organism-based
[5] = target: T2, Prostaglandin G/H synthase 2 (Rattus norvegicus) (UniProt P35355); test: In vivo inhibition of COX2 in Wistar rat assessed as reduction in formalin-induced COX2 expression at 10 mg/kg, ip incubated for 30 mins followed by formalin addition and measured after 2 hrs by immunofluorescence based assay; format: functional, organism-based
T2 sequence (whole entry): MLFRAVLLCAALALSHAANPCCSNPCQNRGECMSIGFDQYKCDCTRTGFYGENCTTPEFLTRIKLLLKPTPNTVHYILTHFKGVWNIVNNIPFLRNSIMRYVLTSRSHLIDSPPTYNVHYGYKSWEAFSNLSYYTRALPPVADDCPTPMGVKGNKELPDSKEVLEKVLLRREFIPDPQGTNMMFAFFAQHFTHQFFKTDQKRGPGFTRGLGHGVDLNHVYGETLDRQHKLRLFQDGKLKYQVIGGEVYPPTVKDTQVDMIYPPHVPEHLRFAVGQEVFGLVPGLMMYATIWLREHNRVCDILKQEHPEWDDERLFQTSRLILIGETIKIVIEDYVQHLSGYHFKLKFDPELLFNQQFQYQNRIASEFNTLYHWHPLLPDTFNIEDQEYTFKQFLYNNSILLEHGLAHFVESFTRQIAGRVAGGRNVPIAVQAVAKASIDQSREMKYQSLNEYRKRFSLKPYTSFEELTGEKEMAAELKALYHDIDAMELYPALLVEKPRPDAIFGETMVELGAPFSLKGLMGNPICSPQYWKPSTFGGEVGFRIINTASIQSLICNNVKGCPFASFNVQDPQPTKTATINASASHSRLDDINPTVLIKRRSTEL

[6] = Ratio of drug level in brain to blood (unknown origin); format: ADME, tissue-based; conditions: read-out: BBR
[7] = target: Prostaglandin G/H synthase 1 (Homo sapiens) (UniProt P23219); test: Inhibition of calcium ionophore-activated COX1 in human whole blood assessed as TXB2 level at 1 uM by ELISA; format: tissue-based
Sequence of Prostaglandin G/H synthase 1 (Homo sapiens) (P23219 whole entry): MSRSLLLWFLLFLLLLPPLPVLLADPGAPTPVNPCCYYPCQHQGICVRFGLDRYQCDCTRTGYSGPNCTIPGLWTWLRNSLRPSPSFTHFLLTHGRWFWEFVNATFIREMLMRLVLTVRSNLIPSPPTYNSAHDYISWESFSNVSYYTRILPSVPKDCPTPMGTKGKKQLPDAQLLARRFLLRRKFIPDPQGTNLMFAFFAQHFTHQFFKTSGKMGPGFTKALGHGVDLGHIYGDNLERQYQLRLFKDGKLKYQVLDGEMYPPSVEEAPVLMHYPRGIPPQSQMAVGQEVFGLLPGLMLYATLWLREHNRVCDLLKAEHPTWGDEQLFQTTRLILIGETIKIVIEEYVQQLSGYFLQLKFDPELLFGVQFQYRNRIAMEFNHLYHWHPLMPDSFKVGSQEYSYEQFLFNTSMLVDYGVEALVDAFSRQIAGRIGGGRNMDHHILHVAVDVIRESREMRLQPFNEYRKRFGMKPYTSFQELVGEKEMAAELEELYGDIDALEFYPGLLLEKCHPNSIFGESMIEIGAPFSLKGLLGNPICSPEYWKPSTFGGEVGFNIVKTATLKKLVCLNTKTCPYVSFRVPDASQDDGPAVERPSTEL

[8] = Protein binding in plasma (unknown origin); format: ADME, cell-free; conditions: read-out: PPB (converted)
Rattus norvegicus [9] = test: Analgesic activity in Wistar rat assessed as reduction in acetic acid-induced writhing at 10 mg/kg, ip incubated for 30 mins followed by acetic acid addition and observed for 30 mins relative to control; format: functional; conditions: 0.5 h
[10] = Drug absorption in human intestine; format: ADME, tissue-based; conditions: read-out: Drug absorption
[11] = Solubility of compound in pure water; format: physicochemical
[12] = Acute toxicity in Wistar rat assessed as effect on liver at 2000 mg/kg, po measured after 14 days by hematoxylin-eosin staining based light microscopy; format: organism-based; conditions: in vivo, 336 h
[13] = Acute toxicity in Wistar rat assessed as behavioral alterations at 2000 mg/kg, po observed for 14 days; format: organism-based; conditions: in vivo, 336 h
[14] = Acute toxicity in Wistar rat assessed as effect on kidney at 2000 mg/kg, po measured after 14 days by hematoxylin-eosin staining based light microscopy; format: organism-based; conditions: in vivo, 336 h

SMILES: COC(=O)[C@@H]1CCCN1c1nc(Cl)nc(Nc2ccc(N3CCOCC3=O)cc2)n1
Activity (Rattus norvegicus [2]): Active

SMILES: COC(=O)[C@H](Cc1ccc(O)cc1)n1cc(COc2nc(Cl)nc(N3CCOCC3)n2)nn1
IC50 [1]: > 10 µM

SMILES: COC(=O)[C@H](Cc1c[nH]c2ccccc12)n1cc(COc2nc(Cl)nc(N3CCCCC3)n2)nn1
IC50 [1]: > 10 µM

SMILES: COc1ccc2c(c1)c(CC(=O)O)c(C)n2C(=O)c1ccc(Cl)cc1 [INDOMETHACIN]
Activity (Rattus norvegicus [3]): Active | Activity (Rattus norvegicus [4]): Active | Activity [7]: 0.59 ng/mL | inhibition in vivo at 10 mg/kg (Rattus norvegicus [9]): 70%

SMILES: COC(=O)[C@@H](N)Cc1ccc(Oc2nc(Cl)nc(N3CCOCC3)n2)cc1
Activity (Rattus norvegicus [2]): Active

SMILES: COC(=O)[C@H](Cc1ccccc1)n1cc(COc2nc(Cl)nc(N3CCCC3)n2)nn1
IC50 [1]: > 10 µM

SMILES: COC(=O)[C@H](Cc1c[nH]c2ccccc12)n1cc(COc2nc(Cl)nc(N3CCOCC3)n2)nn1
IC50 [1]: > 10 µM

SMILES: COC(=O)[C@@H](N)Cc1cn(-c2nc(Cl)nc(N3CCCCC3)n2)c2ccccc12
Activity (Rattus norvegicus [3]): Active | Activity (Rattus norvegicus [4]): Active | inhibition [5]: Active | Kp [6]: 0.66 | Activity [12]: Non-Toxic | Activity [7]: 0.84 ng/mL | IC50 [1]: > 10 µM | fraction unbound [8]: 0.149 | inhibition in vivo at 10 mg/kg (Rattus norvegicus [9]): 65% | Activity [13]: Non-Toxic | Activity [14]: Non-Toxic | Fa [10]: 98.2% | solubility [11]: 740 µg/mL (≈ 1.78 mM)

SMILES: COC(=O)[C@H](Cc1ccc(O)cc1)n1cc(COc2nc(Cl)nc(Nc3ccc(N4CCOCC4=O)cc3)n2)nn1
IC50 [1]: > 10 µM

SMILES: COC(=O)[C@H](Cc1cn(-c2nc(Cl)nc(Nc3ccc(N4CCOCC4=O)cc3)n2)c2ccccc12)NC(=O)OC(C)(C)C
Activity (Rattus norvegicus [2]): Active

SMILES: CC[C@H](C)[C@H](Nc1nc(Cl)nc(Nc2ccc(N3CCOCC3=O)cc2)n1)C(=O)OC
Activity (Rattus norvegicus [2]): Active | IC50 [1]: > 10 µM

SMILES: COC(=O)[C@H](Cc1ccccc1)Nc1nc(Cl)nc(Nc2ccc(N3CCOCC3=O)cc2)n1
Activity (Rattus norvegicus [2]): Active | IC50 [1]: > 10 µM

SMILES: Clc1nc(OCc2cn(Cc3ccccc3)nn2)nc(N2CCOCC2)n1
IC50 [1]: > 10 µM

SMILES: COC(=O)[C@H](Cc1ccccc1)n1cc(COc2nc(Cl)nc(N3CCOCC3)n2)nn1
IC50 [1]: > 10 µM

More lines, main results first:

IC50 [1]: > 10 µM
SMILES: COC(=O)[C@H](Cc1ccc(O)cc1)n1cc(COc2nc(Cl)nc(N3CCCC3)n2)nn1

inhibition [5]: Active | Kp [6]: 0.09 | Activity [7]: 0.9 ng/mL | IC50 [1]: > 10 µM | fraction unbound [8]: 0.124 | Fa [10]: 97.2% | solubility [11]: 30 µg/mL (≈ 0.0575 mM)
SMILES: COC(=O)[C@@H](N)Cc1cn(-c2nc(Cl)nc(Nc3ccc(N4CCOCC4=O)cc3)n2)c2ccccc12
Activity (Rattus norvegicus [3]): Active | Activity (Rattus norvegicus [4]): Active | inhibition in vivo at 10 mg/kg (Rattus norvegicus [9]): 73%

IC50 [1]: 5 µM
SMILES: COC(=O)[C@H](Cc1ccccc1)n1cc(COc2nc(Cl)nc(Nc3ccc(Cl)cc3)n2)nn1

IC50 [1]: > 10 µM
SMILES: COC(=O)[C@@H](N)Cc1ccc(Oc2nc(Cl)nc(N3CCCCC3)n2)cc1

Kp [6]: 0.01 | IC50 [1]: > 10 µM | fraction unbound [8]: 0.143 | Fa [10]: 96.8% | solubility [11]: 4910 µg/mL (≈ 13.1 mM)
SMILES: O=C1COCCN1c1ccc(Nc2nc(Cl)nc(N3CCCC3)n2)cc1

IC50 [1]: > 10 µM
SMILES: O=C(O)c1ccccc1Nc1nc(Cl)nc(Nc2ccc(N3CCOCC3=O)cc2)n1

IC50 [1]: 6 µM
SMILES: O=C1COCCN1c1ccc(Nc2nc(Cl)nc(OCc3cn(Cc4ccccc4)nn3)n2)cc1

Kp [6]: 0.19 | IC50 [1]: 1 µM | fraction unbound [8]: 0.324 | Fa [10]: 96.9% | solubility [11]: 5810 µg/mL (≈ 14.4 mM)
SMILES: N[C@@H](Cc1cn(-c2nc(Cl)nc(N3CCOCC3)n2)c2ccccc12)C(=O)O

IC50 [1]: 8 µM
SMILES: Clc1nc(OCc2cn(Cc3ccccc3)nn2)nc(N2CCCC2)n1

IC50 [1]: 4 µM
SMILES: Clc1ccc(Nc2nc(Cl)nc(OCc3cn(Cc4ccccc4)nn3)n2)cc1

IC50 [1]: 8 µM
SMILES: COC(=O)[C@H](Cc1ccccc1)n1cc(COc2nc(Cl)nc(Nc3ccc(N4CCOCC4=O)cc3)n2)nn1
